Measured values as given in ChEMBL document CHEMBL1157632, “Discovery of dipeptides with high affinity to the specific binding site for substance P1-7” (J Med Chem, 2010).
The source made the active and inactive calls. No cut-off for these calls is given here. Peptide text beside a SMILES is read from it.

Molecular target: Neuromedin-K receptor (NK-3) (Homo sapiens) (UniProt P29371)
Assay: Displacement of [MePhe7]-NKB from human recombinant NK3 receptor at 10 uM

Chain of Neuromedin-K receptor (NK-3) (Homo sapiens) (P29371 whole entry, looked up): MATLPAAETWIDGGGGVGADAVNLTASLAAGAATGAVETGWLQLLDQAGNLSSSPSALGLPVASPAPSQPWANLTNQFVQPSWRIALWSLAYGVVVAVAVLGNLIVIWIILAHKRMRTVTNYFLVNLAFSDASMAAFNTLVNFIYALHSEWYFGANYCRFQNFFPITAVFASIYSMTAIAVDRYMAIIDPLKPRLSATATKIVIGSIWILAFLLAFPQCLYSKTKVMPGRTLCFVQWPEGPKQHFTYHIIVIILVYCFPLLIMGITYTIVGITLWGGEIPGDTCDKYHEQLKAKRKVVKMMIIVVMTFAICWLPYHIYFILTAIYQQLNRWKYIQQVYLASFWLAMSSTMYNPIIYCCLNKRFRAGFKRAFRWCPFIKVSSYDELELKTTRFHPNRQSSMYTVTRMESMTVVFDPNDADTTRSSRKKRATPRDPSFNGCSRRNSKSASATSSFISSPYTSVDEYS

NC(=O)[C@H](Cc1ccccc1)NC(=O)[C@@H](N)Cc1ccccc1 (H-Phe-Phe-NH2)
Activity: inactive
